The values that follow are results of earlier work, collected in patent publication US6623763B2, “Pharmaceutical preparation adhering to the skin, in particular a transdermal therapeutic system for the release of 17-β-estradiol to the human organism” (LTS Lohmann Therape-System AG, priority 1996, dated 2003).

The subject of series [1] is Alzheimer's and Parkinson's disease. The following applies: uniform supply of estradiol.

As for `C[C@]12CC[C@@H]3c4ccc(O)cc4CC[C@H]3[C@@H]1CC[C@@H]2O` [17-β-estradiol semihydrate, 17-β-estradiol-semihydrate], the “temperature of short-term heat treatment without decomposition” value was “up to 170 °C”.

`C[C@]12CC[C@@H]3c4ccc(O)cc4CC[C@H]3[C@@H]1CC[C@@H]2O` [17-β-estradiol]: the “efficacy for prophylaxis of Alzheimer's and Parkinson's disease” value in series [1] was “effective”.
